According to article PMC8277899, “A novel RyR1-selective inhibitor prevents and rescues sudden death in mouse models of malignant hyperthermia and heat stroke” (Nature Communications, 2021):
Several values for one entry are separate records, joined by “and”; a condition that tells them apart may be missing. Equal values may be shown once.

How the values were obtained:
[1] = tested on: FDB muscle fibers from R163C mice; experiment: In vitro [Ca2+]i by Ca2+-selective microelectrode in FDB fibers from R163C mice; assay type: cell-based, mouse; conditions: 0-5 µM
Experimental: (§1) WT and mutant mice (R2509C, 8- to 20-week old; R163C, 12- to 16-week old, and G2435R, 12- to 16-week old) were euthanized and flexor digitorum brevis (FDB) muscles were dissected and incubated with 2 mg/mL collagenase (Worthington Biochemical Co., NJ, USA) in the HEPES-Krebs solution containing 2 mg/mL bovine serum albumin for 2–3 h at 37 °C. Following incubation, single cells were separated by gentle trituration in collagenase-free HEPES-Krebs solution. Isolated single FDB cells were seeded on a laminin-coated cover slip of the 35 mm glass-bottom dish or on 96 well plate coated with Cultrex basement membrane matrix (Trevigen, Minneapolis, USA).
Ca^2+ ion specific microelectrode recordings were performed as follows[38],[50]. For in vivo measurements, WT and heterozygous R163C mice (12- to 16-week old) were anesthetized by i.p. injection of 100 mg/kg ketamine and 5 mg/kg xylazine and placed on a 37 °C heating pad and their temperature was monitored. The vastus lateralis was exposed surgically after which its muscle fibers were impaled with double-barreled Ca^2+-selective microelectrode, and the potentials were recorded via a high-impedance amplifier (WPI Duo 773 electrometer; WPI, Sarasota, FL, USA). […] Muscle fibers were impaled with the microelectrodes as above and [Ca^2+]i was determined in the presence of varying (0–5 µM) concentrations of Cpd1.

[2] = tested on: FDB muscle cells from R2509C mice; experiment: Ca2+ imaging (Cal520, fura-2) of isolated single FDB cells from R2509C mice, rest, halothane, isoflurane; assay type: cell-based, mouse
Experimental: as §1
Isolated single FDB cells were incubated with 4 µM Cal520-AM (AAT Bioquest, CA, USA) or fura-2-AM (Thermo Fisher Scientific) dye in the HEPES-Krebs solution (140 mM NaCl, 5 mM KCl, 2 mM CaCl2, 1 mM MgCl2, 11 mM glucose, 5 mM HEPES, pH 7.4) for 30 min at 37 °C. The cells were then washed three times with the HEPES-Krebs solution to remove excess dye, and after 30 min of de-esterification, fluorescence images were obtained with a 20X (NA = 0.75) objective lens of an inverted microscope (Nikon TE2000-E Japan) equipped with the sCMOS camera (Zyla, Andor, Belfast, Northern Ireland) using Metamorph v7 (Molecular Devices). Cal520 was excited at 480 ± 15 nm, and fluorescence was measured at wavelengths of 525 ± 25 nm. Fura-2 was excited at alternating lights of 340 ± 6 nm and 380 ± 6 nm, fluorescent light was detected at 510 ± 40 nm, and the ratio of fluorescence excited at 340 nm to that at 380 nm was determined. Imaging experiments were carried out at 26 °C by superfusing a HEPES-Krebs solution with or without halothane or isoflurane. Cpd1 was administered 5 min before measurements. For Mn^2+ quenching experiments, fura-2 was excited at 360 ± 12 nm and emitted fluorescence at 510 ± 40 nm was monitored. The cells were perfused with basal Krebs solution (140 mM NaCl, 5 mM KCl, 1 mM MgCl2, 11 mM glucose, 2 mM CaCl2, 10 mM HEPES, pH 7.4) for 60 s to obtain the baseline signal and then perfused with Mn^2+ quenching Krebs solution (140 mM NaCl, 5 mM KCl, 1 mM MgCl2, 11 mM glucose, 0.5 mM MnCl2, 10 mM HEPES, pH 7.4) for 180 s followed by reperfusion with basal Krebs solution for 120 s.

With `CCCCCCCCn1cc(C(=O)O)c(=O)c2cc3c(cc21)OCO3` [Cpd1, 6,7-(methylenedioxy)-1-octyl-4-quinolone-3-carboxylic acid] the “effect on [Ca2+]i in quiescent fibers” value [1] was “reduced [Ca^2+]i in R163C fibers in a dose-dependent manner to the level of WT fibers”, the “effect on isoflurane-induced increase in [Ca2+]i” value ([2]; R2509C cells, 0.1 μM) was “completely prevented” and the “effect on resting [Ca2+]i (Cal520)” value ([2]; R2509C cells, 0.1 μM) was “reduced”. The “Ca2+ signal (Cal520, F/F0)” value ([2]; R2509C cells, 0.1 μM Cpd1, halothane 0.0001) was 1, the “Ca2+ signal (Cal520, F/F0)” value ([2]; R2509C cells, 0.1 μM Cpd1, halothane 0.001) was 1.0324 and 1.0472 and 0.9774 and 0.9848 and 0.9736 and the “Ca2+ signal (Cal520, F/F0)” value ([2]; R2509C cells, 0.1 μM Cpd1, halothane 0.003) was 1.0085 and 1.0149 and 0.9846 and 0.9811 and 0.9717. The “Ca2+ signal (Cal520, F/F0)” value ([2]; R2509C cells, 0.1 μM Cpd1, halothane 0.01) was 1.0131 and 1.0119 and 0.9966 and 0.9808 and 0.9633, the “Ca2+ signal (Cal520, F/F0)” value ([2]; R2509C cells, 0.1 μM Cpd1, halothane 0.03) was 0.9989 and 1.0012 and 1.0266 and 1.0111 and 1.0033 and the “Ca2+ signal (Cal520, F/F0)” value ([2]; R2509C cells, 0.1 μM Cpd1, halothane 0.1) was 1.0006 and 0.9977 and 1.0575 and 1.0571 and 1.0156. For the same molecule, the “Ca2+ signal (fura-2 ratio)” value ([2]; R2509C cells, 0.1 μM Cpd1, isoflurane 0) was 1.236 and 1.532 and 1.49 and 1.463 and 1.64 and 1.372 and 1.497 and 1.401, the “Ca2+ signal (fura-2 ratio)” value ([2]; R2509C cells, 0.1 μM Cpd1, isoflurane 0.1) was 1.237 and 1.533 and 1.482 and 1.467 and 1.643 and 1.374 and 1.485 and 1.496 and the “Ca2+ signal (fura-2 ratio)” value ([2]; R2509C cells, 0.1 μM Cpd1, isoflurane 0.2) was 1.24 and 1.549 and 1.492 and 1.502 and 1.673 and 1.396 and 1.504 and 1.444. The “Ca2+ signal (fura-2 ratio)” value ([2]; R2509C cells, 0.1 μM Cpd1, isoflurane 0.5) was 1.266 and 1.58 and 1.488 and 1.503 and 1.677 and 1.451 and 1.62 and 1.544, the “effect on resting [Ca2+]i (fura-2)” value ([2]; R2509C cells, 0.1 and 0.3 µM) was “reduced [Ca^2+]i in R2509C cells in a dose-dependent manner” and the “effect on halothane-induced increases in [Ca2+]i” value ([2]; R2509C cells, pretreatment 0.1 µM) was “completely abolished”. The “Ca2+ signal with Cpd1 relative to None = 1 (sheet Fig S1b)” value ([2]; R2509C, single experiments) was 0.9373 and 0.9655 and 0.9601 and 0.9482 and 0.7826 and 0.8571.
